{"source": "patent US20220322673A1", "about": "“Novel Agrochemical Combinations” (UPL LIMITED, priority 2019, published 2022)", "assay_type_in_all_cases": "in vivo", "key": {"Okra Aphids": {"system": "Okra Aphids", "assay": "Trials of Flonicamid and Orthosilicic acid on controlling Okra Aphids (Example 1)", "details": "doses gm/ha: OSA + Flonicamid 625 + 50, Flonicamid 75, OSA 1250", "experimental": "Trials were conducted to test the efficacy of the combination of Flonicamid and Orthosilicic acid on controlling Okra Aphids at different dosages."}, "Okra Mites": {"system": "Okra Mites", "assay": "Trials on controlling Okra Mites post 2nd and 3rd application (Example 2)", "details": "doses gm/ha: OSA 625 + Flonicamid 50 / Acetamipirid 50 / Lancer Gold 650, solo OSA 1250, Flonicamid 75, Acetamipirid 50, Lancer gold 650", "experimental": "Trials were conducted to test the efficacy of the combination of Flonicamid and Orthosilicic acid on controlling Okra Mites at different dosages post 2nd and 3rd application."}, "[1]": {"system": "Okra Jassids (Amrasca bigutulla bigutulla)", "details": "for Percent control (%) of Okra Jassids, Nymphs + Adults, A01: A01 = 1 day after first spray; for Percent control (%) of Okra Jassids, Nymphs + Adults, A10: A10 (after 1st spray); for Percent control (%) of Okra Jassids, Nymphs + Adults, B03: B03 = 3 days after 2nd spray; for Percent control (%) of Okra Jassids, Nymphs + Adults, B07: B07 (after 2nd spray); for Percent control (%) of Okra Jassids, Nymphs + Adults, B10: B10 (after 2nd spray); for Percent control (%) of Okra Jassids, Nymphs + Adults, B14: B14 (after 2nd spray); for Percent control (%) of Okra Jassids, Nymphs + Adults, C03: C03 = 3 days after third spray; for Percent control (%) of Okra Jassids, Nymphs + Adults, C10: C10 (after third spray)", "description": "(§1) In this evaluation, feeding damage & insect population on Okra Leaves before and after sprays is averaged and analyzed for the test of significance. Application method: Three applications (application A, B and C) within an interval of 14 days."}, "[2]": {"system": "Okra Aphids (Aphis gossypii)", "details": "doses gm a.i./ha: OSA 25, Flonicamid 100, Acephate+Imidacloprid 520, Flonicamid+Fipronil 100+50, Imidacloprid 24.5, Acetamiprid 15", "description": "as §1"}, "[3]": {"details": "25% reduced dose rate, gm a.i./ha: OSA 25, Flonicamid 75, Acephate+Imidacloprid 390, Flonicamid+Fipronil 75+37.5, Imidacloprid 18.3, Acetamiprid 11.2"}, "[4]": {"details": "doses gm a.i./ha: OSA 25, Flonicamid 100, Acephate+Imidacloprid 520, Flonicamid+Fipronil 100+50, Imidacloprid 24.5, Acetamiprid 15"}}, "note": "Where two headings read alike, the source gives them in different places.", "data": [{"smiles": "N#CCNC(=O)c1cnccc1C(F)(F)F", "note": "[Flonicamid, N-cyanomethyl-4-trifluoromethylnicotinamide]", "values": [{"measurement": "Percent control B01", "setting": "Okra Aphids; B01", "value": 88.8, "unit": "%"}, {"measurement": "Percent control C-01", "setting": "Okra Aphids; C-01", "value": 91.8, "unit": "%"}, {"measurement": "Percent control C-10", "setting": "Okra Aphids; C-10", "value": 96, "unit": "%"}, {"measurement": "Percent control Mean", "setting": "Okra Aphids; Mean of B01, C-01, C-10", "value": 92.2, "unit": "%"}, {"measurement": "Percent control B07", "setting": "Okra Mites; B07", "value": 31.8, "unit": "%"}, {"measurement": "Percent control C-01", "setting": "Okra Mites; C-01", "value": 39.5, "unit": "%"}, {"measurement": "Percent control C-10", "setting": "Okra Mites; C-10", "value": 34.0, "unit": "%"}, {"measurement": "Percent control Mean", "setting": "Okra Mites; Mean of B07, C-01, C-10", "value": 35.1, "unit": "%"}, {"measurement": "Percent control (%) of Okra Jassids, Nymphs + Adults, A01", "setting": "[1]; [3]", "value": 71.2, "unit": "%"}, {"measurement": "Percent control (%) of Okra Jassids, Nymphs + Adults, A01", "setting": "[1]; [4]", "value": 74.8, "unit": "%"}, {"measurement": "Percent control (%) of Okra Jassids, Nymphs + Adults, A10", "setting": "[1]; [3]", "value": 85.8, "unit": "%"}, {"measurement": "Percent control (%) of Okra Jassids, Nymphs + Adults, A10", "setting": "[1]; [4]", "value": 89.3, "unit": "%"}, {"measurement": "Percent control (%) of Okra Jassids, Nymphs + Adults, B03", "setting": "[1]; [3]", "value": 82, "unit": "%"}, {"measurement": "Percent control (%) of Okra Jassids, Nymphs + Adults, B03", "setting": "[1]; [4]", "value": 90.7, "unit": "%"}, {"measurement": "Percent control (%) of Okra Jassids, Nymphs + Adults, B07", "setting": "[1]; [3]", "value": 89.3, "unit": "%"}, {"measurement": "Percent control (%) of Okra Jassids, Nymphs + Adults, B07", "setting": "[1]; [4]", "value": 93.3, "unit": "%"}, {"measurement": "Percent control (%) of Okra Jassids, Nymphs + Adults, B10", "setting": "[1]; [3]", "value": 91.5, "unit": "%"}, {"measurement": "Percent control (%) of Okra Jassids, Nymphs + Adults, B10", "setting": "[1]; [4]", "value": 94.2, "unit": "%"}, {"measurement": "Percent control (%) of Okra Jassids, Nymphs + Adults, B14", "setting": "[1]; [3]", "value": 87.4, "unit": "%"}, {"measurement": "Percent control (%) of Okra Jassids, Nymphs + Adults, B14", "setting": "[1]; [4]", "value": 89.3, "unit": "%"}, {"measurement": "Percent control (%) of Okra Jassids, Nymphs + Adults, C03", "setting": "[1]; [3]", "value": 90.2, "unit": "%"}, {"measurement": "Percent control (%) of Okra Jassids, Nymphs + Adults, C03", "setting": "[1]; [4]", "value": 93.3, "unit": "%"}, {"measurement": "Percent control (%) of Okra Jassids, Nymphs + Adults, C10", "setting": "[1]; [3]", "value": 92.5, "unit": "%"}, {"measurement": "Percent control (%) of Okra Jassids, Nymphs + Adults, C10", "setting": "[1]; [4]", "value": 94.4, "unit": "%"}, {"measurement": "Percent control (%) of Okra Aphids, Nymphs + Adults, A01", "setting": "[2]; A01 = 1 day after first spray", "value": 78.2, "unit": "%"}, {"measurement": "Percent control (%) of Okra Aphids, Nymphs + Adults, A10", "setting": "[2]; A10 (after 1st spray)", "value": 91.9, "unit": "%"}, {"measurement": "Percent control (%) of Okra Aphids, Nymphs + Adults, B03", "setting": "[2]; B03 = 3 days after 2nd spray", "value": 95.1, "unit": "%"}, {"measurement": "Percent control (%) of Okra Aphids, Nymphs + Adults, B07", "setting": "[2]; B07 (after 2nd spray)", "value": 95.5, "unit": "%"}, {"measurement": "Percent control (%) of Okra Aphids, Nymphs + Adults, B10", "setting": "[2]; B10 (after 2nd spray)", "value": 93, "unit": "%"}, {"measurement": "Percent control (%) of Okra Aphids, Nymphs + Adults, C03", "setting": "[2]; C03 = 3 days after third spray", "value": 94.7, "unit": "%"}, {"measurement": "Percent control (%) of Okra Aphids, Nymphs + Adults, C10", "setting": "[2]; C10 (after third spray)", "value": 94.9, "unit": "%"}]}]}
